Columns and labels:
Test in all cases: Post-emergence herbicidal effect, greenhouse pot test
[1] = tested on: VIOTR; assay type: in vivo, Viola tricolor; conditions: Viola tricolor, 504 h, read-out: Post-emergence effect against VIOTR in %
How it was run: (§1)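 Weeds sown in sandy loam, greenhouse-grown 2–3 weeks, then sprayed at one-leaf stage with WP or EC formulations in water plus 0.5% additive at 600 l/ha. Rates 20 to 320 g/ha. Visual rating after about 3 weeks versus untreated controls (100% = plants dead, 0% = like control).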

[2] = tested on: ECHCG; assay type: in vivo, Echinochloa crus-galli; conditions: Echinochloa crus-galli, 504 h; for pest or weed control at 20 g/ha: visual rating about 3 weeks after treatment, read-out: Post-emergence effect against ECHCG; for pest or weed control at 80 g/ha / pest or weed control at 320 g/ha: read-out: Post-emergence effect against ECHCG in %
How it was run: as §1

[3] = tested on: POLCO; assay type: in vivo, Fallopia convolvulus; conditions: Fallopia convolvulus, 504 h, read-out: Post-emergence effect against POLCO in %
How it was run: as §1

[4] = tested on: LOLRI; assay type: in vivo, Lolium rigidum; conditions: Lolium rigidum, 504 h, 320 g/ha, read-out: Post-emergence effect against LOLRI in %
How it was run: as §1

[5] = tested on: AMARE; assay type: in vivo, Amaranthus retroflexus; conditions: Amaranthus retroflexus, 504 h, visual rating about 3 weeks after treatment, read-out: Post-emergence effect against AMARE
How it was run: as §1

[6] = tested on: ALOMY; assay type: in vivo, Alopecurus myosuroides; conditions: Alopecurus myosuroides, 504 h, visual rating about 3 weeks after treatment, read-out: Post-emergence effect against ALOMY
How it was run: as §1

[7] = tested on: KCHSC; assay type: in vivo; conditions: 504 h, read-out: Post-emergence effect against KCHSC in %
How it was run: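 Greenhouse plants in sandy loam, sprayed post-emergence at the one-leaf stage (2–3 weeks after sowing) with WP or EC formulations in water plus 0.5% additive at 600 l/ha. Rates 20 to 320 g/ha. Activity rated visually after about 3 weeks against untreated controls (0% like control, 100% dead).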

[8] = tested on: PHBPU; assay type: in vivo, Ipomoea purpurea; conditions: Ipomoea purpurea, 504 h, read-out: Post-emergence effect against PHBPU in %
How it was run: as §1

[9] = tested on: MATIN; assay type: in vivo, Tripleurospermum inodorum; conditions: Tripleurospermum inodorum, 504 h, read-out: Post-emergence effect against MATIN in %
How it was run: as §1

[10] = tested on: SETVI; assay type: in vivo, Setaria viridis; conditions: Setaria viridis, 504 h, read-out: Post-emergence effect against SETVI in %
How it was run: as §1

[11] = tested on: AVEFA; assay type: in vivo, Avena fatua; conditions: Avena fatua, 504 h, visual rating about 3 weeks after treatment, read-out: Post-emergence effect against AVEFA
How it was run: as §1

[12] = tested on: VERPE; assay type: in vivo, Veronica persica; conditions: Veronica persica, 504 h, read-out: Post-emergence effect against VERPE in %
How it was run: as §1

[13] = tested on: DIGSA; assay type: in vivo, Digitaria sanguinalis; conditions: Digitaria sanguinalis, 504 h, visual rating about 3 weeks after treatment, read-out: Post-emergence effect against DIGSA
How it was run: as §1

[14] = tested on: ABUTH; assay type: in vivo, Abutilon theophrasti; conditions: Abutilon theophrasti, 504 h, visual rating about 3 weeks after treatment, read-out: Post-emergence effect against ABUTH
How it was run: as §1

| Structure (SMILES) | pest or weed control at 80 g/ha [1] | pest or weed control at 320 g/ha [1] | pest or weed control at 20 g/ha [2] | pest or weed control at 80 g/ha [2] | pest or weed control at 320 g/ha [2] | pest or weed control at 320 g/ha [3] | pest or weed control at 320 g/ha [4] | pest or weed control at 320 g/ha [5] | pest or weed control at 320 g/ha [6] | pest or weed control at 320 g/ha [7] | pest or weed control at 80 g/ha [8] | pest or weed control at 320 g/ha [8] | pest or weed control at 320 g/ha [9] | pest or weed control at 80 g/ha [10] | pest or weed control at 320 g/ha [10] | pest or weed control at 320 g/ha [11] | pest or weed control at 320 g/ha [12] | pest or weed control at 320 g/ha [13] | pest or weed control at 80 g/ha [14] | pest or weed control at 320 g/ha [14] | also measured |
| --- | --- | --- | --- | --- | --- | --- | --- | --- | --- | --- | --- | --- | --- | --- | --- | --- | --- | --- | --- | --- | --- |
| CCOC(=O)C(OCC)Oc1nn(-c2ccccc2F)c(-c2ccc(F)nc2)c1Cl (centres unmarked) [Example I-50] | 80% | 90% | 90% | 90% | 90% | 80% | 90% | 80% | 80% | 80% | 90% | 90% | 80% | 90% | 90% | 90% | 90% | 90% | 80% | 90% | pest or weed control at 80 g/ha [12]: 90% |
| COC(=O)C(OC)Oc1nn(-c2ccccc2F)c(-c2ccc(F)nc2)c1C(F)(F)F (centres unmarked) [Example I-70] | 90% | 90% | – | 90% | 90% | 80% | 90% | 80% | 90% | 90% | 90% | 90% | 80% | 80% | 80% | 90% | 90% | 90% | 80% | 90% | pest or weed control at 20 g/ha [3]: 80%; pest or weed control at 80 g/ha [3]: 80%; pest or weed control at 80 g/ha [5]: 80%; pest or weed control at 80 g/ha ([6]; 80 g/ha): 80%; pest or weed control at 20 g/ha [7]: 80%; pest or weed control at 80 g/ha [7]: 90%; pest or weed control at 80 g/ha ([9]; 80 g/ha): 80%; pest or weed control at 80 g/ha [11]: 90%; pest or weed control at 80 g/ha [12]: 90%; pest or weed control at 80 g/ha [13]: 80% |
| COC(=O)C(OC)Oc1nn(-c2ncccc2F)c(-c2cncc(F)c2)c1I (centres unmarked) [Example I-72] | 90% | 90% | 90% | 90% | 90% | 90% | 90% | 80% | 90% | 90% | 90% | 90% | – | 90% | 90% | 90% | 90% | 90% | 80% | 90% | pest or weed control at 20 g/ha ([1]; 20 g/ha): 90%; pest or weed control at 20 g/ha [3]: 80%; pest or weed control at 80 g/ha [3]: 80%; pest or weed control at 20 g/ha ([5]; 20 g/ha): 80%; pest or weed control at 80 g/ha [5]: 80%; pest or weed control at 20 g/ha [7]: 90%; pest or weed control at 80 g/ha [7]: 90%; pest or weed control at 20 g/ha ([8]; 20 g/ha): 80%; pest or weed control at 20 g/ha ([10]; 20 g/ha): 90%; pest or weed control at 80 g/ha [11]: 90%; pest or weed control at 80 g/ha [13]: 90% |

Source: patent US20240391862A1, “(1,4,5-TRISUBSTITUTED-1H-PYRAZOL-3-YL)OXY-2-ALKOXY ALKYL ACIDS AND THEIR DERIVATIVES, THEIR SALTS AND THEIR USE AS HERBICIDAL AGENTS” (Bayer AKtiengesellschaft, priority 2021, published 2024)
